In ChEMBL document CHEMBL3351674, “Novel polycarboxylate porphyrins: synthesis, characterization, photophysical properties and preliminary antimicrobial study against Gram-positive bacteria” (Bioorg Med Chem Lett, 2015):
Active and inactive are the calls of the source. No cut-off for these calls is given here.

Tests used:
[1] = Photostability of the compound in nitrogen-saturated phosphate buffer solution under 2.5 mW/cm'2 white light; assay type: physicochemical
[2] = Photostability of the compound in air-saturated phosphate buffer solution under 2.5 mW/cm'2 white light; assay type: physicochemical
[3] = 2-octanol-aqueous buffer partition coefficient, logP of the compound at pH 7.4; assay type: physicochemical
Bacillus cereus = assay: Antibacterial activity against Bacillus cereus assessed as decrease in cell viability at > 50 uM after 30 mins under 2.5 mW/cm'2 white light by confocal microscopy/UV-diode laser method; assay type: functional, organism-based
Staphylococcus aureus = assay: Antibacterial activity against Staphylococcus aureus assessed as decrease in cell viability at > 50 uM after 30 mins under 2.5 mW/cm'2 white light by confocal microscopy/UV-diode laser method; assay type: functional, organism-based

Row | Stability [1] | Stability [2] | logD [3] | Structure (SMILES) | Activity (Bacillus cereus) | Activity (Staphylococcus aureus)
1 | Stable | Unstable | -2.17 | O=C(O)COc1cc(OCC(=O)O)c(-c2c3nc(c(-c4ccc(C(=O)O)cc4)c4ccc([nH]4)c(-c4c(OCC(=O)O)cc(OCC(=O)O)cc4OCC(=O)O)c4nc(c(-c5ccc(C(=O)O)cc5)c5ccc2[nH]5)C=C4)C=C3)c(OCC(=O)O)c1 | inactive | Active
2 |  |  | 1.66 | CC(C)(C)OC(=O)COc1cc(OCC(=O)OC(C)(C)C)c(-c2c3nc(c(-c4ccc(C(=O)O)cc4)c4ccc([nH]4)c(-c4c(OCC(=O)OC(C)(C)C)cc(OCC(=O)OC(C)(C)C)cc4OCC(=O)OC(C)(C)C)c4nc(c(-c5ccc(C(=O)O)cc5)c5ccc2[nH]5)C=C4)C=C3)c(OCC(=O)OC(C)(C)C)c1 |  | 
3 | Stable | Unstable | -0.77 | Cc1cc(C)c(-c2c3nc(c(-c4c(OCC(=O)O)cc(OCC(=O)O)cc4OCC(=O)O)c4ccc([nH]4)c(-c4c(C)cc(C)cc4C)c4nc(c(-c5c(OCC(=O)O)cc(OCC(=O)O)cc5OCC(=O)O)c5ccc2[nH]5)C=C4)C=C3)c(C)c1 | Active | Active
